According to patent US11040027B2, “Protein kinase inhibitors for promoting liver regeneration or reducing or preventing hepatocyte death” (HEPAREGENIX GMBH, priority 2017, dated 2021):

Assays:
MKK4 = molecular target: T1, MKK4 (Homo sapiens, UniProt P45985); experiment: KINOMEscan competition binding assay, MKK4; conditions: read-out: Potency MKK4 (derived from % of control values, PoC)
T1 sequence (P45985 84-399): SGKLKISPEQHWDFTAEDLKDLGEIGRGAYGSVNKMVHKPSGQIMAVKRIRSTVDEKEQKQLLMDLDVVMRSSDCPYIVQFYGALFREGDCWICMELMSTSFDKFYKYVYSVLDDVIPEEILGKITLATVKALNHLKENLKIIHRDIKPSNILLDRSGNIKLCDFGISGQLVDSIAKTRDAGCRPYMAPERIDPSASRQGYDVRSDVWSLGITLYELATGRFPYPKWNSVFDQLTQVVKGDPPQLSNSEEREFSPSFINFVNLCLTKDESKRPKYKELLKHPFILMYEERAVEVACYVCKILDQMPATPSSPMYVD
Description: (§1) For investigation of the affinity to MKK4, MKK7 and JNK1, the kinases were produced in HEK-293 cells and subsequently tagged with DNA for qPCR detection. […] The liganded beads were blocked with excess biotin and washed with blocking buffer (SEABLOCK™ (Pierce), 1% BSA, 0.05% TWEEN®20, 1 mM DTT) to remove unbound ligand and to reduce nonspecific binding. […] All reactions were performed in polystyrene 96-well plates in a final volume of 0.135 mL. […] The kinase concentration in the eluates was measured by qPCR.

JNK1 = JNK1 (Homo sapiens, UniProt P45983); experiment: KINOMEscan competition binding assay, selectivity JNK1 versus MKK4; conditions: Test conc 10 μM; ratio of percent of control
Chain of JNK1 (P45983 1-384 isoform P45983-2): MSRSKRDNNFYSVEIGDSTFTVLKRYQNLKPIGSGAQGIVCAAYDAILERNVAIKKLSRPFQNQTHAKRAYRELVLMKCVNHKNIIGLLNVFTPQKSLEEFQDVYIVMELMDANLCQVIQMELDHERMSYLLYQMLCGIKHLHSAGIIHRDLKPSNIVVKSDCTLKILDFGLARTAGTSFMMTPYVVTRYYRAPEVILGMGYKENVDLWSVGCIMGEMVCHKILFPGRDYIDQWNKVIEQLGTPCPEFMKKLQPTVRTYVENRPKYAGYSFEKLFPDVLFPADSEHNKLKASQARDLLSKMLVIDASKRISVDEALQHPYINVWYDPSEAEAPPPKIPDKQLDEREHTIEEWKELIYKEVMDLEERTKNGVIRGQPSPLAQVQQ
Description: as §1

MKK7 = molecular target: T2, MKK7 (Homo sapiens, UniProt O14733); experiment: KINOMEscan competition binding assay, selectivity MKK7 versus MKK4; conditions: Test conc. 0.1 μM; ratio of percent of control; N/E* per footnote
T2 sequence (O14733 1-419): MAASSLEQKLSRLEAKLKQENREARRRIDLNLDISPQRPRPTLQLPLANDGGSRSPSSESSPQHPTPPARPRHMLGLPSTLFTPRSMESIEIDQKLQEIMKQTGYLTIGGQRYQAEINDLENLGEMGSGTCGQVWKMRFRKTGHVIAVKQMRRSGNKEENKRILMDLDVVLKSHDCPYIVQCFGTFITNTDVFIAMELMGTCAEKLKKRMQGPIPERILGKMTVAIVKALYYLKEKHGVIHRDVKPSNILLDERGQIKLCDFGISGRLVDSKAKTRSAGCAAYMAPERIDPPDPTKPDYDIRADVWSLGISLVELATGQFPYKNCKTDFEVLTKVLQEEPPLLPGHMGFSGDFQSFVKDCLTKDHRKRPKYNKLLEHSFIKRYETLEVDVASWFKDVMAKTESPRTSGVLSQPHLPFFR
Description: as §1

BRaf = BRaf (Homo sapiens, UniProt P15056); experiment: KINOMEscan competition binding assay, selectivity BRaf versus MKK4; conditions: Test conc. 0.1 μM; ratio of percent of control; N/E* per footnote
Chain of BRaf (P15056 whole entry): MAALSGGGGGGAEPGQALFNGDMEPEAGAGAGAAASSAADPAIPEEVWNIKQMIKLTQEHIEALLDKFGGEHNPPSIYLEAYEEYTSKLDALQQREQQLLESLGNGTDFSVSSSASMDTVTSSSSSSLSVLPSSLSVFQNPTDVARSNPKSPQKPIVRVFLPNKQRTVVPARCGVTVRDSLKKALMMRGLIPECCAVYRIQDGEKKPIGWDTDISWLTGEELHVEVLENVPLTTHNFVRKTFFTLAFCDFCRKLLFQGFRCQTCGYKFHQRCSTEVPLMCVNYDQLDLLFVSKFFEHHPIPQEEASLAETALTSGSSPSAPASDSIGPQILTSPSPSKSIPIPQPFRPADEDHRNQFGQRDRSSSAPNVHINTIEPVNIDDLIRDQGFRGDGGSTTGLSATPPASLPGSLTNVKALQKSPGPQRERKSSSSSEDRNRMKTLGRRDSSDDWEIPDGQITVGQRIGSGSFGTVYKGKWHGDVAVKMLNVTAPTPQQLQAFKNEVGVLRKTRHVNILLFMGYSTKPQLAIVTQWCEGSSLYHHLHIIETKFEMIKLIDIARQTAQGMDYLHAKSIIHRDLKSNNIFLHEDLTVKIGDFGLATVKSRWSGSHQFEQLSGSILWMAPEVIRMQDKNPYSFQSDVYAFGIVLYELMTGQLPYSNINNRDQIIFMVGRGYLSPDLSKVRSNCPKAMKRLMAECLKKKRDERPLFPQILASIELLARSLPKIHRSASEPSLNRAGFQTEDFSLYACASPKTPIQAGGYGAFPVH
Description: The assay was performed by combining three components: DNA-tagged kinase; immobilized ligand; and a test compound. The ability of the test compound to compete with the immobilized ligand was measured via quantitative PCR of the DNA tag. The technology is described in detail in Fabian, M. A. et al. A small molecule-kinase interaction map for clinical kinase inhibitors. Nat. […] Nat.
The test compounds were provided as 10 mM stock solutions. The test solutions at indicated final concentrations were prepared at DiscoverX.

| remaining binding at 0.1 µM (MKK4) [%] | Selectivity JNK1/MKK4 (JNK1) | Selectivity MKK7/MKK4 (MKK7) | Selectivity BRaf/MKK4 (BRaf) | SMILES |
| --- | --- | --- | --- | --- |
| > 30 | >10 | 6.7 | 4.2 | CCCS(=O)(=O)Nc1ccc(F)c(C(=O)c2c[nH]c3ncc(-c4ccccc4O)cc23)c1F [Example 9, N-(2,4-Difluoro-3-(5-(2-hydroxyphenyl)-1H-pyrrolo[2,3-b]pyridine-3-carbonyl)phenyl)propane-1-sulfonamide] |
| 10 to 30 | >100 | 25 | 6.3 | CCCS(=O)(=O)Nc1ccc(F)c(C(=O)c2c[nH]c3ncc(-c4ccc(F)cc4)cc23)c1F [Example 11, N-(2,4-Difluoro-3-(5-(4-fluorophenyl)-1H-pyrrolo[2,3-b]pyridine-3-carbonyl)phenyl)propane-1-sulfonamide] |
| 10 to 30 | 23 | 10 | 1.5 | CCCS(=O)(=O)Nc1ccc(F)c(C(=O)c2c[nH]c3ncc(-c4cccc(C#N)c4)cc23)c1F [Example 14, N-(3-(5-(3-Cyanophenyl)-1H-pyrrolo[2,3-b]pyridine-3-carbonyl)-2,4-difluorophenyl)propane-1-sulfonamide] |
| 10 to 30 | >100 | 30 | 2.0 | CCCS(=O)(=O)Nc1ccc(F)c(C(=O)c2c[nH]c3ncc(-c4ccc5c(c4)OCCO5)cc23)c1F [Example 15, N-(3-(5-(2,3-Dihydrobenzo[b][1,4]dioxin-6-yl)-1H-pyrrolo[2,3-b]pyridine-3-carbonyl)-2,4-difluorophenyl)propane-1-sulfonamide] |
| > 30 | >100 | 8 | 2.5 | CCCS(=O)(=O)Nc1ccc(F)c(C(=O)c2c[nH]c3ncc(-c4ccc(F)c(F)c4)cc23)c1F [Example 16, N-(3-(5-(3,4-Difluorophenyl)-1H-pyrrolo[2,3-b]pyridine-3-carbonyl)-2,4-difluorophenyl)propane-1-sulfonamide] |

Second part, the compound before the results:

| SMILES | remaining binding at 0.1 µM (MKK4) [%] | Selectivity JNK1/MKK4 (JNK1) | Selectivity MKK7/MKK4 (MKK7) | Selectivity BRaf/MKK4 (BRaf) |
| --- | --- | --- | --- | --- |
| CCCS(=O)(=O)Nc1ccc(F)c(C(=O)c2c[nH]c3ncc(-c4ccc(OC)cc4)cc23)c1F [Example 3, N-(2,4-Difluoro-3-(5-(4-methoxyphenyl)-1H-pyrrolo[2,3-b]pyridine-3-carbonyl)phenyl)propane-1-sulfonamide] | 10 to 30 | >400 | 10 | 1.0 |
| CCCS(=O)(=O)Nc1ccc(F)c(C(=O)c2c[nH]c3ncc(-c4ccc(C#N)cc4)cc23)c1F [Example 4, N-(3-(5-(4-Cyanophenyl)-1H-pyrrolo[2,3-b]pyridine-3-carbonyl)-2,4-difluorophenyl)propane-1-sulfonamide] | 10 to 30 | >400 | 25 | 2.8 |
| CCCS(=O)(=O)Nc1ccc(F)c(C(=O)c2c[nH]c3ncc(-c4cnc5ccccc5c4)cc23)c1F [Example 6, N-(2,4-Difluoro-3-(5-(quinolin-3-yl)-1H-pyrrolo[2,3-b]pyridin-3-carbonyl)phenyl)propane-1-sulfonamide] | > 30 | >100 | 5.6 | 0.1 |
| CCCS(=O)(=O)Nc1ccc(F)c(C(=O)c2c[nH]c3ncc(-c4ccc(SC)cc4)cc23)c1F [Example 8, N-(2,4-Difluoro-3-(5-(4-(methylthio)phenyl)-1H-pyrrolo[2,3-b]pyridine-3-carbonyl)phenyl)propane-1-sulfonamide] | > 30 | >100 | 7.6 | 0.5 |
